For data set [1] the following is noted: oral; cited from earlier work.
Data set [2] can be described thus: Dynamic vapor sorption (DVS) hygroscopicity. On the set-up: key to Hygroscopicity: “+/+/+” indicates most favorable; “+/+” indicates more favorable; “+” indicates favorable; “−” indicates unfavorable; “−/−” indicates more unfavorable; “−/−/−” indicates most unfavorable. It is filed as physicochemical. Particulars: for physical form conversion throughout the DVS cycle: DVS cycle 0-95% RH; for hygroscopicity (in words): DVS isotherm; for acquisition of water on exposure to elevated relative humidities: >95% RH. An excerpt: Pharmaceutically acceptable salts of the compound of Formula (I) suitable for pharmaceutical manufacture may also be characterized as non-hygroscopic or slightly hygroscopic, preferably non-hygroscopic. The hygroscopicity may be measured herein by performing a moisture adsorption-desorption isotherm using a dynamic vapor sorption (DVS) analyzer with a starting exposure of 30% relative humidity (RH), increasing humidity up to 95% RH, decreasing humidity to 0%, and finally increasing the humidity back to the starting 30% RH, and classified according to the following: • non-hygroscopic: <0.2%; slightly hygroscopic: ≥0.2% and <2%; hygroscopic: ≥2% and <15%; very hygroscopic: ≥15%; deliquescent: sufficient water is absorbed to form a liquid; all values measured as weight increase (w/w due to acquisition of water) at >95% RH and 25° C.
Dynamic vapor sorption-desorption experiments were carried out using a DVS Resolution instrument supplied by Surface Measurement Systems. Data were acquired using the following acquisition parameters: • Solvent; Water • Start relative humidity; 30% RH • Relative humidity cycle (% RH); 30, 40, 50, 60, 70, 80, 90, 95, 90, 80, 70, 60, 50, 40, 30, 20, 10, 0, 10, 20, 30 • Equilibrium condition (dm/dt); 0.002%/minute • Equilibrium condition window; 10 minutes • Minimum stage period; 5 minutes • Maximum stage period; 360 minutes • Temperature; 25° C. • Carrier gas; Nitrogen • Carrier gas flow rate; 200 mL·min^−1 (Total)
Typically, 20-50 mg of the test substance was mounted in a gauze basket and transferred to the sample port. Excess static electricity was removed throughout sample handling and sample mounting using a ^210Po static eliminator. Instrument performance checks were completed using traceable samples of sodium chloride and lithium chloride. For selected samples, the cycle was repeated using the same sample to assess any change in physical form induced on exposure to elevated relative humidity.

Data set [3] in a line: Salt form assessment (crystallization propensity, DSC/XRPD physical properties, appearance, counter-ion acceptability, salt suitability). It is filed as physicochemical. On the set-up: key: “+/+/+” indicates most favorable; “+/+” indicates more favorable; “+” indicates favorable; “−” indicates unfavorable; “−/−” indicates more unfavorable; “−/−/−” indicates most unfavorable. Conditions: for Physical properties (crystallinity, melt, enthalpy, polymorph tendency): DSC, XRPD; for Crystallization propensity: crystallization from ethanol. The method, then: Samples were analyzed by differential scanning calorimetry (DSC), X-ray powder diffraction (XRPD), and dynamic vapor sorption (DVS). In addition, the appearance and visual properties of each sample were assessed, in addition to propensity for crystallization.
A summary of the data obtained from the analyses of the individual salt forms of Examples 1-9 are presented in Table 10, with advantageous and detrimental properties summarized using the following nomenclature: “+/+/+” indicates most favorable; “+/+” indicates more favorable; “+” indicates favorable; “−” indicates unfavorable; “−/−” indicates more unfavorable; “−/−/−” indicates most unfavorable.

For data set [4] the following is noted: prolonged storage; cited from earlier work.

For the compound `COc1cc(CCNCc2ccccc2OC)c(OC)cc1Cl` [2C—C-NBOMe, 2-(4-Chloro-2,5-dimethoxyphenyl)-N-[(2-methoxyphenyl)methyl]ethan-1-amine], in data set [1], the “orally active dose (lowest)” value is ≥ 25 µg and the “very strong psychedelic doses” value is 500 to 700 µg.
As for `CN(C)CCc1c[nH]c2ccccc12` [Example 9, 2-(1H-indol-3-yl)-N,N-dimethylethan-1-amine], the Hygroscopicity entry in data set [2] (DVS) was “−/−/−”. Besides, in data set [3], the Appearance result is reported as “−”; the “Physical properties (crystallinity, melt, enthalpy, polymorph tendency)” value (“Physical properties” for short) is on record as “−/−”; the Crystallization propensity result is listed as “−”.
As to `CN(C)CCc1c[nH]c2ccccc12` [Example 5, 2-(1H-indol-3-yl)-N,N-dimethylethan-1-amine], in data set [2] (DVS), the Hygroscopicity entry is listed as “−”. The water uptake result in data set [2] (DVS, 25° C., on exposure to 95% RH) is listed as “approximately 3 % w/w”. Also, in data set [3], the Appearance entry is “+/+”; the “Physical properties” value is reported as “+/+”; the Crystallization propensity entry is “+”.
Consider `CN(C)CCc1c[nH]c2ccccc12` [Example 8, 2-(1H-indol-3-yl)-N,N-dimethylethan-1-amine], for which, in data set [2] (DVS), the Hygroscopicity entry is “−/−/−” and the “behavior at elevated relative humidities” value was “deliquesce”. Besides, in data set [3], the Appearance result was “−”; the “Physical properties” value is recorded as “−/−”; the Crystallization propensity result is on record as “−”.
For `CN(C)CCc1c[nH]c2ccccc12` [Example 6, 2-(1H-indol-3-yl)-N,N-dimethylethan-1-amine], in data set [2] (DVS), the Hygroscopicity result is reported as “−/−/−” and the “behavior at elevated relative humidities” value was “deliquesce”. In addition, in data set [3], the Appearance result is reported as “+/+/+”; the “Physical properties” value was “+/+”; the Crystallization propensity entry is reported as “−”.
Turning to `CN(C)CCc1c[nH]c2ccccc12` [Example 1, 2-(1H-indol-3-yl)-N,N-dimethylethan-1-amine], the Hygroscopicity entry in data set [2] (DVS) is given as “+/+/+”. Besides, in data set [2], the “physical form conversion throughout the DVS cycle” value was “no evidence of physical form conversion” and the “hygroscopicity (in words)” value is “no significant hygroscopicity”. For the same compound, in data set [2] (DVS, 25° C.), the “acquisition of water on exposure to elevated relative humidities” value is recorded as < 0.2 % w/w. In data set [3], the Appearance result is listed as “+/+/+”; the “Physical properties” value is listed as “+/+/+”; the Crystallization propensity result is on record as “+/+/+”.
In the case of `CN(C)CCc1c[nH]c2ccccc12` [Example I-1, 2-(1H-indol-3-yl)-N,N-dimethylethan-1-amine], in data set [4], the storage sensitivity entry is “sensitive to oxygen, heat, and light”.
`CN(C)CCc1c[nH]c2ccccc12` [Example 4, 2-(1H-indol-3-yl)-N,N-dimethylethan-1-amine]: the Hygroscopicity result in data set [2] (DVS) was “+/+/+”. Moreover, in data set [2], the “physical form conversion throughout the DVS cycle” value is recorded as “no evidence of physical form conversion” and the “hygroscopicity (in words)” value was “no significant hygroscopicity”. Further, the “acquisition of water on exposure to elevated relative humidities” value in data set [2] (DVS, 25° C.) is reported as < 0.5 % w/w. Further, in data set [3], the Appearance result is given as “+/+/+”; the “Physical properties” value is listed as “+/+/+”; the Crystallization propensity entry is “−”.
Consider `CN(C)CCc1c[nH]c2ccccc12` [Example 7, 2-(1H-indol-3-yl)-N,N-dimethylethan-1-amine], for which the Hygroscopicity entry in data set [2] (DVS) was “−/−/−”. The “physical form conversion throughout the DVS cycle” value in data set [2] is recorded as “a phase change was induced”. Also, in data set [2] (DVS, >80% RH), the “water uptake at relative humidities exceeding 80%” value is listed as “excessive”. Also, in data set [2] (DVS, typical ambient relative humidities), the equilibrium water content is > 3%. In addition, in data set [3], the Appearance entry is “−”; the “Physical properties” value is given as “−/−”; the Crystallization propensity result is given as “−”.
For the compound `CN(C)CCc1c[nH]c2ccccc12` [Example 3, 2-(1H-indol-3-yl)-N,N-dimethylethan-1-amine], the Hygroscopicity entry in data set [2] (DVS) is recorded as “+/+/+”. For the same compound, in data set [2], the “physical form conversion throughout the DVS cycle” value was “no evidence of physical form conversion” and the “hygroscopicity (in words)” value was “no significant hygroscopicity”. In data set [2] (DVS, 25° C.), the “acquisition of water on exposure to elevated relative humidities” value is < 0.06 % w/w. Also, in data set [3], the Appearance result is “+/+/+”; the “Physical properties” value is given as “+/+/+”; the Crystallization propensity result is “+”.
Regarding `CN(C)CCc1c[nH]c2ccccc12` [Example 2, 2-(1H-indol-3-yl)-N,N-dimethylethan-1-amine], the Hygroscopicity result in data set [2] (DVS) is “+/+/+”. In addition, in data set [2], the “physical form conversion throughout the DVS cycle” value is “no evidence of physical form conversion” and the “hygroscopicity (in words)” value is on record as “no significant hygroscopicity”. The “acquisition of water on exposure to elevated relative humidities” value in data set [2] (DVS, 25° C.) is < 0.05 % w/w. Further, in data set [3], the Appearance entry is recorded as “+/+/+”; the “Physical properties” value is listed as “+/+/+”; the Crystallization propensity result is on record as “+/+/+”.
